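In this assay, cells in 96-well plates receive the compound at five concentrations for 48 hours. Endpoints are linearly interpolated between the surrounding concentrations. GI50: concentration for 50% inhibition of growth.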 Calls of active or inactive are those of the source. No stated cut-off is given here; in the data, active = GI50 up to about 1.1 µM and inactive = higher.
Assays:
Assay in all cases: NCI tumour cell line growth inhibition, 48 h
NCI-H23 = tested on: NCI-H23
NCI/ADR-RES = tested on: NCI/ADR-RES
HOP-62 = tested on: HOP-62
HCT-15 = tested on: HCT-15
T47D = tested on: T47D
SK-MEL-2 = tested on: SK-MEL-2
LOX IMVI = tested on: LOX IMVI
SK-MEL-28 = tested on: SK-MEL-28
MOLT-4 = tested on: MOLT-4
SF-295 = tested on: SF-295
HT-29 = tested on: HT-29
786-0 = tested on: 786-0
U-251 = tested on: U-251
HOP-92 = tested on: HOP-92
SF-268 = tested on: SF-268
UACC-62 = tested on: UACC-62
Malme-3M = tested on: Malme-3M
SNB-75 = tested on: SNB-75
HCT-116 = tested on: HCT-116
HCC 2998 = tested on: HCC 2998

Measured: GI50

CCOc1ccc(Nc2nc(N)nc(N)c2N)cc1
inactive: NCI-H23 26.8 µM | NCI/ADR-RES 37 µM | HOP-62 24.7 µM | T47D 21.4 µM | SK-MEL-2 44.9 µM | LOX IMVI 36.2 µM | SK-MEL-28 > 100 µM | MOLT-4 19.8 µM | SF-295 17.9 µM | HT-29 17.8 µM | 786-0 22.3 µM | U-251 24.1 µM | HOP-92 50.9 µM | SF-268 15.6 µM | UACC-62 32.7 µM | Malme-3M 12.6 µM | SNB-75 20.6 µM | HCT-116 30.7 µM
38.9 µM: HCT-15

O=C(O)CCc1nc2c(n1-c1ccccc1)C(=O)c1ccccc1C2=O
> 100 µM: HCT-15
active: HOP-92 0.0226 µM
inactive: HCC 2998 > 100 µM | NCI-H23 > 100 µM | NCI/ADR-RES > 100 µM | HOP-62 > 100 µM | T47D 64.7 µM | SK-MEL-2 95.9 µM | LOX IMVI 70.5 µM | SK-MEL-28 > 100 µM | MOLT-4 > 100 µM | SF-295 > 100 µM | HT-29 > 100 µM | 786-0 > 100 µM | U-251 > 100 µM | SF-268 > 100 µM | UACC-62 > 100 µM | SNB-75 > 100 µM | HCT-116 50.2 µM

C=CCCCN1C(=O)C2C3c4ccccc4C(C=O)(c4ccccc43)C2C1=O (stereo not drawn)
inactive: HCC 2998 14.7 µM | NCI-H23 12.4 µM | NCI/ADR-RES 10.9 µM | HOP-62 14.5 µM | T47D 8.91 µM | SK-MEL-2 24 µM | LOX IMVI 6.07 µM | SK-MEL-28 15.9 µM | MOLT-4 4.57 µM | SF-295 9.91 µM | HT-29 10 µM | 786-0 13.3 µM | U-251 11.2 µM | HOP-92 11.3 µM | SF-268 14.5 µM | UACC-62 9.42 µM | Malme-3M 13.6 µM | HCT-116 3.13 µM
8.41 µM: HCT-15

COc1ccccc1N1C(=O)CS(=O)(=O)C1c1cccc(Oc2ccccc2)c1 (stereo not drawn)
inactive: NCI-H23 16.7 µM | NCI/ADR-RES 16.9 µM | HOP-62 18.6 µM | T47D 15.6 µM | SK-MEL-2 13 µM | LOX IMVI 17.8 µM | SK-MEL-28 17.5 µM | MOLT-4 13.9 µM | SF-295 16.7 µM | HT-29 21.4 µM | 786-0 18.3 µM | U-251 16.1 µM | HOP-92 10.8 µM | SF-268 15.8 µM | UACC-62 12.1 µM | Malme-3M 15 µM | SNB-75 20 µM | HCT-116 13.5 µM
12.1 µM: HCT-15

O=C1CC(=O)NC(NN2C(=O)CSC2c2ccc(Cl)cc2)=N1 (stereo not drawn)
> 100 µM: HCT-15
inactive: HCC 2998 > 100 µM | NCI-H23 25.5 µM | NCI/ADR-RES > 100 µM | HOP-62 24.9 µM | T47D > 100 µM | SK-MEL-2 > 100 µM | SK-MEL-28 > 100 µM | MOLT-4 28 µM | SF-295 > 100 µM | HT-29 34.1 µM | 786-0 37.2 µM | U-251 36.4 µM | HOP-92 > 100 µM | SF-268 45 µM | UACC-62 21.8 µM | Malme-3M 65.8 µM | SNB-75 > 100 µM | HCT-116 > 100 µM

C=C[C@@H]1C(CO)=CCC2[C@H]1CCC1C(C)(C)C(=O)CC[C@]21C (stereo partly drawn)
inactive: HCC 2998 > 100 µM | NCI-H23 > 100 µM | NCI/ADR-RES > 100 µM | HOP-62 > 100 µM | T47D > 100 µM | SK-MEL-2 > 100 µM | LOX IMVI > 100 µM | SK-MEL-28 > 100 µM | MOLT-4 > 100 µM | SF-295 > 100 µM | HT-29 > 100 µM | 786-0 > 100 µM | U-251 > 100 µM | HOP-92 > 100 µM | SF-268 > 100 µM | UACC-62 > 100 µM | Malme-3M > 100 µM | HCT-116 > 100 µM
> 100 µM: HCT-15

NCc1ccc(O)c(O)c1
inactive: HCC 2998 > 100 µM | NCI-H23 > 100 µM | NCI/ADR-RES > 100 µM | HOP-62 > 100 µM | T47D > 100 µM | SK-MEL-2 > 100 µM | LOX IMVI > 100 µM | SK-MEL-28 > 100 µM | MOLT-4 27.1 µM | SF-295 > 100 µM | HT-29 > 100 µM | 786-0 > 100 µM | U-251 > 100 µM | HOP-92 > 100 µM | UACC-62 > 100 µM | SNB-75 > 100 µM | HCT-116 > 100 µM
> 100 µM: HCT-15

Cc1cccc2c(NCCN(C)C)c3cccc(C(=O)NCCN(C)C)c3nc12
inactive: T47D 1.81 µM
active: HCC 2998 < 0.0455 µM | NCI-H23 0.372 µM | NCI/ADR-RES 0.446 µM | HOP-62 0.258 µM | SK-MEL-2 0.54 µM | SK-MEL-28 0.199 µM | MOLT-4 0.0262 µM | SF-295 0.105 µM | HT-29 0.0594 µM | 786-0 0.0783 µM | U-251 0.139 µM | HOP-92 0.218 µM | SF-268 0.316 µM | UACC-62 0.135 µM | Malme-3M 0.508 µM | SNB-75 0.357 µM | HCT-116 0.0673 µM
0.14 µM: HCT-15

COCC[N+](CCNC(=O)c1cccc2c(N)c3cccc(C)c3nc12)(CCOC)Cc1ccc([N+](=O)[O-])cc1
41.8 µM: HCT-15
inactive: HCC 2998 4.92 µM | NCI-H23 29.8 µM | NCI/ADR-RES 88.3 µM | HOP-62 31.8 µM | T47D 18.1 µM | SK-MEL-2 28.8 µM | LOX IMVI 23.1 µM | SK-MEL-28 13.8 µM | MOLT-4 3.57 µM | SF-295 28.4 µM | HT-29 18.8 µM | 786-0 19.1 µM | U-251 19.8 µM | HOP-92 29 µM | SF-268 12.4 µM | UACC-62 16 µM | SNB-75 27 µM | HCT-116 17.2 µM

CCCC(=O)N(C(=O)CCC)C1=C(Cl)C(=O)c2ccccc2C1=O
inactive: HCC 2998 4.04 µM | NCI-H23 2.65 µM | NCI/ADR-RES 3.86 µM | HOP-62 11.9 µM | T47D 2.33 µM | SK-MEL-2 4.42 µM | LOX IMVI 3.66 µM | SK-MEL-28 3.72 µM | MOLT-4 3.25 µM | SF-295 15.8 µM | HT-29 8.51 µM | 786-0 9.98 µM | U-251 4.08 µM | HOP-92 4.01 µM | SF-268 4.32 µM | UACC-62 2.49 µM | SNB-75 3.18 µM | HCT-116 2.72 µM
2.1 µM: HCT-15

NCCCCc1cc(O)c2c(c1O)C(=O)c1ccccc1C2=O
inactive: HCC 2998 12.6 µM | NCI-H23 14.3 µM | NCI/ADR-RES 12.6 µM | HOP-62 8.39 µM | T47D 18.1 µM | SK-MEL-2 17.4 µM | LOX IMVI 7.59 µM | SK-MEL-28 17.5 µM | MOLT-4 2.81 µM | SF-295 14.1 µM | HT-29 4.19 µM | 786-0 6 µM | U-251 9.75 µM | HOP-92 14.4 µM | SF-268 13.8 µM | UACC-62 17.5 µM | Malme-3M 14.7 µM | HCT-116 4.75 µM
9.25 µM: HCT-15

Cn1c2ccccc2n2c3ncccc3c(=O)cc12
31 µM: HCT-15
inactive: NCI-H23 43 µM | NCI/ADR-RES 50.4 µM | HOP-62 32.1 µM | T47D 55.7 µM | LOX IMVI 29.9 µM | SK-MEL-28 > 100 µM | MOLT-4 36.9 µM | SF-295 45.1 µM | HT-29 38.9 µM | 786-0 37.3 µM | U-251 40.4 µM | HOP-92 54.5 µM | SF-268 64.4 µM | Malme-3M 45 µM | SNB-75 44.1 µM | HCT-116 15 µM

Cc1ncc([N+](=O)[O-])n1CCNC(=O)CCC(=O)NCCCn1ccnc1[N+](=O)[O-]
inactive: NCI-H23 > 100 µM | NCI/ADR-RES > 100 µM | HOP-62 > 100 µM | T47D > 100 µM | SK-MEL-2 > 100 µM | LOX IMVI > 100 µM | SK-MEL-28 > 100 µM | MOLT-4 > 100 µM | SF-295 > 100 µM | HT-29 > 100 µM | 786-0 > 100 µM | U-251 > 100 µM | HOP-92 54 µM | SF-268 > 100 µM | UACC-62 > 100 µM | Malme-3M > 100 µM | SNB-75 > 100 µM | HCT-116 > 100 µM
> 100 µM: HCT-15

COc1ccc(C2=NN(c3ccccc3)C(c3cc4cc(Br)ccc4nc3Cl)C2)cc1 (stereo not drawn)
11.6 µM: HCT-15
inactive: NCI-H23 > 25 µM | NCI/ADR-RES > 25 µM | HOP-62 18.8 µM | T47D > 25 µM | SK-MEL-2 > 25 µM | LOX IMVI > 25 µM | SK-MEL-28 > 25 µM | MOLT-4 > 25 µM | SF-295 9.51 µM | HT-29 > 25 µM | 786-0 > 25 µM | HOP-92 > 25 µM | SF-268 > 25 µM | Malme-3M > 25 µM | SNB-75 > 25 µM | HCT-116 17.5 µM

O=C(CCCCCC(=O)N1CC(CCl)c2ccc([N+](=O)[O-])cc21)N1CC(CCl)c2ccc([N+](=O)[O-])cc21 (stereo not drawn)
> 100 µM: HCT-15
inactive: HCC 2998 23.7 µM | NCI-H23 > 100 µM | NCI/ADR-RES > 100 µM | HOP-62 95.7 µM | T47D > 100 µM | SK-MEL-2 > 100 µM | LOX IMVI > 100 µM | MOLT-4 > 100 µM | SF-295 87.1 µM | 786-0 > 100 µM | U-251 > 100 µM | HOP-92 > 100 µM | SF-268 > 100 µM | UACC-62 > 100 µM | SNB-75 48.1 µM | HCT-116 > 100 µM
